According to the supplement of paper PMC4862054:

Legend:
Details in all cases: incubation time: 72 h
[1] = tested on: BT-474; assay: normalised viability (% of control), CellTiter-Blue; higher = more viable cells (about 100 = DMSO control)
How it was run: (§1)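 Breast cancer cell lines were treated for 72 h in 384-well format and measured by CellTiter-Blue fluorescence at 560/590 nm. Results were normalised per plate to vehicle (100) and a positive kill control (0). The entry is normalised viability at a single listed concentration of the series.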

[2] = tested on: CAL-120; assay: as above
How it was run: as §1

[3] = tested on: CAL-148; assay: as above
How it was run: as §1

[4] = tested on: CAL-51; assay: as above
How it was run: as §1

[5] = tested on: CAL-85-1; assay: as above
How it was run: as §1

[6] = tested on: HCC1143; assay: as above
How it was run: as §1

[7] = tested on: HCC1599; assay: as above
How it was run: as §1

[8] = tested on: HCC1937; assay: as above
How it was run: as §1

[9] = tested on: HDQ-P1; assay: as above
How it was run: as §1

[10] = tested on: Hs578T; assay: as above
How it was run: as §1

[11] = tested on: MDA-MB-231; assay: as above
How it was run: as §1

[12] = tested on: MDA-MB-468; assay: as above
How it was run: as §1

[13] = tested on: MFM-223; assay: as above
How it was run: as §1

[14] = tested on: SK-BR-3; assay: as above
How it was run: as §1

[15] = tested on: BT-474; assay: drug sensitivity score (DSS), CellTiter-Glo (DSS (AUC-based score)); higher = stronger drug effect (viability inhibition or cytotoxicity); extreme values may be limits of the assay
How it was run: (§2)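 In 384-well plates, compound was laid out at 5 concentrations in 10-fold steps over a 10,000-fold range specific to each compound, and breast cancer cell lines were seeded on top in 20 µl suspension for a 72 h incubation. CellTox Green fluorescence and then CellTiter-Glo luminescence were read, and each plate was normalised to 0.1 % DMSO and a positive kill control. The drug sensitivity score was calculated from the area under the fitted dose-response curve.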

[16] = tested on: CAL-120; assay: as above
How it was run: as §2

[17] = tested on: CAL-51; assay: as above
How it was run: as §2

[18] = tested on: CAL-85-1; assay: as above
How it was run: as §2

[19] = tested on: DU-4475; assay: as above
How it was run: as §2

[20] = tested on: HCC1599; assay: as above
How it was run: as §2

[21] = tested on: HDQ-P1; assay: as above
How it was run: as §2

[22] = tested on: Hs578T; assay: as above
How it was run: as §2

[23] = tested on: MDA-MB-231; assay: as above
How it was run: as §2

[24] = tested on: SK-BR-3; assay: as above
How it was run: as §2

CC(C)Cn1cnc2c(N)nc3ccccc3c21 [Imiquimod]
normalised viability [%]
Details | 3 nM | 10 nM | 30 nM | 100 nM | 1000 nM | 10000 nM
[1] | – | 104 | – | – | 115 | 102
[2] | – | 97.9 | – | – | 97.2 | 105
[3] | 93.1 | – | 102 | 98.5 | – | –
[4] | 103 | – | 97.9 | 98.1 | – | –
[5] | 100 | – | 90.6 | 105 | – | –
[6] | – | 96.5 | – | – | 99.9 | 94.1
[7] | – | 102 | – | – | 100 | 109
[8] | – | 86.2 | – | – | 82.5 | 88.5
[9] | 91.7 | – | 92 | 96.6 | – | –
[10] | – | 105 | – | – | 105 | 84.9
[11] | – | 84.8 | – | – | 89.3 | 107
[12] | – | 102 | – | – | 103 | 107
[13] | – | 108 | – | – | 98.3 | 102
[14] | – | 85 | – | – | 91.2 | 115

Details | drug sensitivity score
[15] | 0
[16] | 0
[17] | 0
[18] | 0
[19] | 0
[20] | 0
[21] | 0
[22] | 0
[23] | 0
[24] | 0

C[C@@H](Oc1cc(-c2cnn(C3CCNCC3)c2)cnc1N)c1c(Cl)ccc(F)c1Cl [Crizotinib]
normalised viability [%]
Details | 3 nM | 10 nM | 30 nM | 100 nM | 1000 nM | 10000 nM
[1] | – | 94.2 | – | – | 93.3 | 10.3
[2] | – | 90.3 | – | – | 83.4 | 9.87
[3] | 91.8 | – | 94.1 | 100 | – | –
[4] | 107 | – | 107 | 108 | – | –
[5] | 91.7 | – | 91 | 94 | – | –
[6] | – | 87.8 | – | – | 96.1 | 42.5
[7] | – | 105 | – | – | 99.1 | 60.8
[8] | – | 38.1 | – | – | 89.2 | 7.72
[9] | 88.4 | – | 91.3 | 88.6 | – | –
[10] | – | 102 | – | – | 103 | 34
[11] | – | 89.8 | – | – | 63.5 | 0.88
[12] | – | 107 | – | – | 95.3 | 8.61
[13] | – | 75.5 | – | – | 73 | 34.1
[14] | – | 97.2 | – | – | 110 | 5.81

Details | drug sensitivity score
[15] | 0
[16] | 0
[17] | 0
[18] | 0
[19] | 0
[20] | 0
[21] | 0
[22] | 0
[23] | 0
[24] | 0

C[C@]12CC[C@@H]3c4ccc(O)cc4C[C@@H](CCCCCCCCC[S+]([O-])CCCC(F)(F)C(F)(F)F)[C@H]3[C@@H]1CC[C@@H]2O (stereo partly drawn) [Fulvestrant]
normalised viability [%]
Details | 3 nM | 10 nM | 30 nM | 100 nM | 1000 nM | 10000 nM
[1] | – | 94.7 | – | – | 88.4 | 107
[2] | – | 79.2 | – | – | 90.7 | 87.6
[3] | 89 | – | 87.5 | 87.3 | – | –
[4] | 116 | – | 107 | 109 | – | –
[5] | 91.8 | – | 91.7 | 90.3 | – | –
[6] | – | 76.6 | – | – | 81.5 | 78.1
[7] | – | 93.9 | – | – | 82.6 | 92.4
[8] | – | 88.3 | – | – | 85.5 | 88.3
[9] | 83.7 | – | 92.2 | 94 | – | –
[10] | – | 103 | – | – | 91.7 | 86.2
[11] | – | 105 | – | – | 99.7 | 90.2
[12] | – | 97.5 | – | – | 104 | 83.6
[13] | – | 67.2 | – | – | 77.6 | 45.2
[14] | – | 76.9 | – | – | 109 | 84.5

Details | drug sensitivity score
[15] | 0
[16] | 0
[17] | 0
[18] | 0
[19] | 0
[20] | 0
[21] | 0
[22] | 0
[23] | 0
[24] | 0

Clc1ccc(Nc2nnc(Cc3ccncc3)c3ccccc23)cc1 [Vatalanib]
normalised viability [%]
Details | 3 nM | 10 nM | 30 nM | 100 nM | 1000 nM | 10000 nM
[1] | – | 95.8 | – | – | 96 | 73.1
[2] | – | 82.2 | – | – | 89.7 | 82.6
[3] | 76.1 | – | 83.6 | 82.2 | – | –
[4] | 104 | – | 98.7 | 104 | – | –
[5] | 90 | – | 87.6 | 93.4 | – | –
[6] | – | 80.5 | – | – | 87.2 | 79.6
[7] | – | 116 | – | – | 115 | 113
[8] | – | 75 | – | – | 95.7 | 91.9
[9] | 105 | – | 102 | 108 | – | –
[10] | – | 115 | – | – | 104 | 84.7
[11] | – | 90.1 | – | – | 90.8 | 85.1
[12] | – | 98.6 | – | – | 112 | 78.2
[13] | – | 99.5 | – | – | 99.8 | 111
[14] | – | 95.2 | – | – | 101 | 86.9

Details | drug sensitivity score
[15] | 0
[16] | 0
[17] | 0
[18] | 0
[19] | 0
[20] | 0
[21] | 0
[22] | 0
[23] | 0
[24] | 0
